This test deals with E. coli gyrase A2B2 (Escherichia coli, UniProt P0AES6). The test is described as follows: E. coli gyrase A2B2 ATPase assay. Format: biochemical. The following applies: 40 nM Gyr A2B2 from E coli, 0.9 mM ATP, 30° C., read-out: Activity against E. coli gyrase (Ki). How it is done:
The ATP hydrolysis activity of DNA gyrase was measured by coupling the production of ADP through pyruvate kinase/lactate dehydrogenase to the oxidation of NADH. This method has been described previously. (Tamura and Gellert, 1990, J. Biol. Chem. 265, 21342-21349).
ATPase assays were carried out at 30° C. in buffered solutions containing 100 mM TRIS pH 7.6, 1.5 mM MgCl2, and 150 mM KCl. The coupling system contained (final concentrations) 2.5 mM phosphoenol pyruvate, 200 μM nicotinamide adenine dinucleotide (NADH), 1 mM DTT, 30 ug/ml pyruvate kinase, and 10 ug/ml lactate dehydrogenase. 40 nM enzyme (374 kDa Gyr A2B2 from E coli) and a DMSO solution of the inhibitor to a final concentration of 4% were added and the reaction mixture allowed to incubate for 10 minutes at 30° C. The reaction was then started by the addition of ATP to a final concentration of 0.9 mM and the rate of NADH disappearance at 340 nm, measured over the course of 10 minutes. Ki values were determined from rate versus. inhibitor concentration profiles.

As usually defined, the Ki is the equilibrium dissociation constant of an inhibitor or competing ligand from its target. Turning to `CCOC(=O)c1cc(-c2sc(-c3cccnc3)nc2CN2CCNCC2)n[nH]1` [IA-67], the Ki fell in the range of 500 to 1500 nM.

For the origin of these results see patent US20030170858A1, “Gyrase inhibitors and uses thereof” (priority 2001, published 2003).
